How the values were obtained:
[1] = system: intraperitoneal macrophage cells of a mouse; assay: Measurement of macrophage activity: nitrite ion concentration (NO release, Griess reagent); assay type: cell-based; details: test compound 50 μM; for Nitrite Ion Concentration Relative Value: relative to TDCM = 1.0, 48 hours; for Nitrite Ion Concentration Actual Value: cultured 48 hours, mouse peritoneal macrophages, mean ± S.E.
Procedure: Macrophage activation indicates the condition wherein the adhesion to the tissue and the motility of the macrophages are improved, so that bacteria entering from outside or denatured self-components are phagocytized. Macrophage activity can be measured using the release of cytokine or active oxygen as an index. In Experimental Example 1 below, the macrophage activation ability was measured using the nitrite ion concentration as an index.
The present experiment was conducted with reference to the method described in Sakurai T., Kaise T., Matsubara C. Chem. Res. Toxicol. 1998, 11, 273-283. Specifically, ICR male mice (6 to 7 weeks old) were anesthetized, a phosphate buffer containing 0.05% EDTA was injected intraperitoneally, an intraperitoneal lavage was performed, and a peritoneal macrophage was aseptically recovered. After the cells were washed with an RPMI-1640 medium (containing 10% bovine fetal serum), the macrophage cells were inoculated so that there were 1×10^5 cells/100 μl in each well of the 96-well plate. After being pre-incubated for 2 hours, the test compound (50 μM) was added to the culture medium, and cultured for 48 hours. Afterwards, a Griess test reagent was added to the culture medium, which was allowed to stand for 10 minutes; the absorbency thereof was measured with a microplate reader (filter: 550/630 nm), after which the nitrite ion concentration (NO2^−) was determined from a calibration curve. The reproducibility of the above-described test was confirmed by 3 wells, the experiment was repeated at least three times using different mice, and the mean values ±S.E. were determined.

rabbit neutrophil [2] = assay: Influence on the phagocytic action of neutrophils (opsonized ampicillin resistant E. coli, colony count); details: neutrophils treated 1 hour, then opsonized E. coli 1 hour
[3] = system: Clostridium perfringens (Type A NTCT8237); assay type: in vivo, ICR mice; details: emulsion solution 100 mg/mouse, 3 hours before C. perfringens 2.4×10^7 cells/mouse
rabbit neutrophil [4] = assay: Influence on rabbit neutrophil H2O2 production (H2DCFDA fluorescence); assay type: cell-based; details: 2 hours at 37° C., rabbit neutrophils
Procedure: The neutrophils (1.0×10^5 cells/100 μl) were inoculated in a 96-well plate (Falcon).

SMILES	Nitrite Ion Concentration Relative Value [1]	Nitrite Ion Concentration Actual Value [1] [nM]	The number of colonies (rabbit neutrophil [2]; 50 μM)	The number of colonies (rabbit neutrophil [2]; 100 μM)	The number surviving/Administered group After 2 hr [3]	The number surviving/Administered group After 6 hr [3]	The number surviving/Administered group After 12 hr [3]	The number surviving/Administered group After 24 hr [3]	The number surviving/Administered group after 48 hr [3]	H2O2 production (rabbit neutrophil [4]; 50 μM) [nmol/10^5 Cells]	H2O2 production (rabbit neutrophil [4]; 100 μM) [nmol/10^5 Cells]
CCCCCCCCCCCCCC(CCCCCCCCCCCCC)C(=O)NCC1O[C@H](O[C@H]2OC(CNC(=O)C(CCCCCCCCCCCCC)CCCCCCCCCCCCC)[C@@H](O)C(O)C2O)C(O)C(O)[C@@H]1O (stereo partly drawn) [Ex. 4, 6,6′-bis-N-(2-tridecylpentadecanoylamino)-6,6′-dideoxy-α,α′-trehalose]	7.6	3676 ± 385	200 ± 15	350 ± 30	4/4	4/4	4/4	4/4	4/4	0.15 ± 0.02	0.18 ± 0.02
CCCCCCCCCCC(CCCCCCCCCC)C(=O)NCC1O[C@H](O[C@H]2OC(CNC(=O)C(CCCCCCCCCC)CCCCCCCCCC)[C@@H](O)C(O)C2O)C(O)C(O)[C@@H]1O (stereo partly drawn) [Ex. 1, 6,6′-bis-N-(2-decyldodecanoylamino)-6,6′-dideoxy-α,α′-trehalose]	0.4	200 ± 133	250 ± 11	487 ± 20	4/4	4/4	4/4	4/4	4/4	0.33 ± 0.05	0.38 ± 0.05
CCCCCCCCCCCCCCC[C@@H](O)[C@@H](CCCCCCCCCCCCCC)C(=O)OCC1O[C@H](O[C@H]2OC(COC(=O)[C@H](CCCCCCCCCCCCCC)[C@H](O)CCCCCCCCCCCCCCC)[C@@H](O)[C@H](O)C2O)C(O)[C@@H](O)[C@@H]1O (some centres unmarked) [TDCM, trehalose 6,6′-dicorynomycolate, reference compound]	1.0	500 ± 271	50 ± 10	87 ± 10	4/4	4/4	4/4	4/4	4/4	0.18 ± 0.02	0.21 ± 0.02
CCCCCCCCCCCCCCCCC(CCCCCCCCCCCCCCCC)C(=O)NCC1O[C@H](O[C@H]2OC(CNC(=O)C(CCCCCCCCCCCCCCCC)CCCCCCCCCCCCCCCC)[C@@H](O)C(O)C2O)C(O)C(O)[C@@H]1O (stereo partly drawn) [Ex. 7, 6,6′-bis-N-(2-hexadecyloctadecanoylamino)-6,6′-dideoxy-α,α′-trehalose]	0.6	300 ± 229	110 ± 7	200 ± 8						0.10 ± 0.03	0.15 ± 0.02
CCCCCCCCCCCCCCCC(CCCCCCCCCCCCCCC)C(=O)NCC1O[C@H](O[C@H]2OC(CNC(=O)C(CCCCCCCCCCCCCCC)CCCCCCCCCCCCCCC)[C@@H](O)C(O)C2O)C(O)C(O)[C@@H]1O (stereo partly drawn) [Ex. 6, 6,6′-bis-N-(2-pentadecylheptadecanoylamino)-6,6′-dideoxy-α,α′-trehalose]	1.7	851 ± 608	120 ± 11	220 ± 12						0.11 ± 0.03	0.16 ± 0.03
CCCCCCCCCCCCC(CCCCCCCCCCCC)C(=O)NCC1O[C@H](O[C@H]2OC(CNC(=O)C(CCCCCCCCCCCC)CCCCCCCCCCCC)[C@@H](O)C(O)C2O)C(O)C(O)[C@@H]1O (stereo partly drawn) [Ex. 3, 6,6′-bis-N-(2-dodecyltetradecanoylamino)-6,6′-dideoxy-α,α′-trehalose]	2.4	1202 ± 647	58 ± 9	112 ± 15						0.18 ± 0.03	0.20 ± 0.03
CCCCCCCCCCCCCCC(CCCCCCCCCCCCCC)C(=O)NCC1O[C@H](O[C@H]2OC(CNC(=O)C(CCCCCCCCCCCCCC)CCCCCCCCCCCCCC)[C@@H](O)C(O)C2O)C(O)C(O)[C@@H]1O (stereo partly drawn) [Ex. 5, 6,6′-bis-N-(2-tetradecylhexadecanoylamino)-6,6′-dideoxy-α,α′-trehalose]	8.8	4419 ± 4250	250 ± 16	450 ± 31	4/4	4/4	4/4	4/4	4/4	0.26 ± 0.04	0.29 ± 0.04
CCCCCCCCCCCC(CCCCCCCCCCC)C(=O)NCC1O[C@H](O[C@H]2OC(CNC(=O)C(CCCCCCCCCCC)CCCCCCCCCCC)[C@@H](O)C(O)C2O)C(O)C(O)[C@@H]1O (stereo partly drawn) [Ex. 2, 6,6′-bis-N-(2-undecyltridecanoylamino)-6,6′-dideoxy-α,α′-trehalose]	3.9	1973 ± 973	89 ± 21	172 ± 13						0.25 ± 0.02	0.26 ± 0.02

— patent US20100093993A1 (priority 2007, published 2010)
